Measurements taken from patent US7118895B2, “Process for producing aglycon by using diglycosidase and flavor-improved food containing the aglycon and converting agent to be used in the process” (Amano Enzyme Inc., priority 2000, dated 2006).

Tested on: Crude diglycosidase
Experiment: Examination of substrate concentration in the conversion into isoflavone aglycons by diglycosidase using soybean materials;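 also: percent of the isoflavone family total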
Type: biochemical, Penicillium multicolor IAM7153
Outline: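 Reaction at 55° C, shaken, pH 4.0 (20 mM acetate), using crude diglycosidase from a 1.88 AU/mL enzyme solution on soy flour, soymilk, defatted soybean or soy protein concentrate at 2, 5, 10, 20 or 30% (w/v). Isoflavone aglycons quantified by HPLC of ethanol extracts at 0, 1, 3, 6 h.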

SMILES: COc1cc2c(=O)c(-c3ccc(O)cc3)coc2cc1O[C@@H]1O[C@H](CO)[C@@H](O)[C@H](O)[C@H]1O [glycitin]
- Decomposition efficiency: ratio of each glycoside/aglycon within its isoflavone family (roasted soy flour, substrate concentration 2%, heat treatment of enzyme no, reaction time 0 h): 50.2%
- Decomposition efficiency: ratio of each glycoside/aglycon within its isoflavone family (roasted soy flour, substrate concentration 2%, heat treatment of enzyme no, reaction time 1 h): not detected
- Decomposition efficiency: ratio of each glycoside/aglycon within its isoflavone family (roasted soy flour, substrate concentration 2%, heat treatment of enzyme no, reaction time 3 h): not detected
- Decomposition efficiency: ratio of each glycoside/aglycon within its isoflavone family (roasted soy flour, substrate concentration 2%, heat treatment of enzyme no, reaction time 6 h): not detected
- Decomposition efficiency: ratio of each glycoside/aglycon within its isoflavone family (roasted soy flour, substrate concentration 2%, heat treatment of enzyme yes, reaction time 6 h): 53.4%
- Decomposition efficiency: ratio of each glycoside/aglycon within its isoflavone family (roasted soy flour, substrate concentration 5%, heat treatment of enzyme no, reaction time 0 h): 54.8%
- Decomposition efficiency: ratio of each glycoside/aglycon within its isoflavone family (roasted soy flour, substrate concentration 5%, heat treatment of enzyme no, reaction time 1 h): not detected
- Decomposition efficiency: ratio of each glycoside/aglycon within its isoflavone family (roasted soy flour, substrate concentration 5%, heat treatment of enzyme no, reaction time 3 h): not detected
- Decomposition efficiency: ratio of each glycoside/aglycon within its isoflavone family (roasted soy flour, substrate concentration 5%, heat treatment of enzyme no, reaction time 6 h): not detected
- Decomposition efficiency: ratio of each glycoside/aglycon within its isoflavone family (roasted soy flour, substrate concentration 5%, heat treatment of enzyme yes, reaction time 6 h): 54.8%
- Decomposition efficiency: ratio of each glycoside/aglycon within its isoflavone family (roasted soy flour, substrate concentration 10%, heat treatment of enzyme no, reaction time 0 h): 70.3%
- Decomposition efficiency: ratio of each glycoside/aglycon within its isoflavone family (roasted soy flour, substrate concentration 10%, heat treatment of enzyme no, reaction time 1 h): not detected
- Decomposition efficiency: ratio of each glycoside/aglycon within its isoflavone family (roasted soy flour, substrate concentration 10%, heat treatment of enzyme no, reaction time 3 h): not detected
- Decomposition efficiency: ratio of each glycoside/aglycon within its isoflavone family (roasted soy flour, substrate concentration 10%, heat treatment of enzyme no, reaction time 6 h): not detected
- Decomposition efficiency: ratio of each glycoside/aglycon within its isoflavone family (roasted soy flour, substrate concentration 10%, heat treatment of enzyme yes, reaction time 6 h): 55.0%
- Decomposition efficiency: ratio of each glycoside/aglycon within its isoflavone family (roasted soy flour, substrate concentration 20%, heat treatment of enzyme no, reaction time 0 h): 59.6%
- Decomposition efficiency: ratio of each glycoside/aglycon within its isoflavone family (roasted soy flour, substrate concentration 20%, heat treatment of enzyme no, reaction time 1 h): not detected
- Decomposition efficiency: ratio of each glycoside/aglycon within its isoflavone family (roasted soy flour, substrate concentration 20%, heat treatment of enzyme no, reaction time 3 h): not detected
- Decomposition efficiency: ratio of each glycoside/aglycon within its isoflavone family (roasted soy flour, substrate concentration 20%, heat treatment of enzyme no, reaction time 6 h): not detected
- Decomposition efficiency: ratio of each glycoside/aglycon within its isoflavone family (roasted soy flour, substrate concentration 20%, heat treatment of enzyme yes, reaction time 6 h): 56.0%
- Decomposition efficiency: ratio of each glycoside/aglycon within its isoflavone family (roasted soy flour, substrate concentration 30%, heat treatment of enzyme no, reaction time 0 h): 55.9%
- Decomposition efficiency: ratio of each glycoside/aglycon within its isoflavone family (roasted soy flour, substrate concentration 30%, heat treatment of enzyme no, reaction time 1 h): not detected
- Decomposition efficiency: ratio of each glycoside/aglycon within its isoflavone family (roasted soy flour, substrate concentration 30%, heat treatment of enzyme no, reaction time 3 h): not detected
- Decomposition efficiency: ratio of each glycoside/aglycon within its isoflavone family (roasted soy flour, substrate concentration 30%, heat treatment of enzyme no, reaction time 6 h): not detected
- Decomposition efficiency: ratio of each glycoside/aglycon within its isoflavone family (roasted soy flour, substrate concentration 30%, heat treatment of enzyme yes, reaction time 6 h): 56.9%
- Decomposition efficiency: ratio of each glycoside/aglycon within its isoflavone family (soymilk, substrate concentration 2%, heat treatment of enzyme no, reaction time 0 h): 71.8%
- Decomposition efficiency: ratio of each glycoside/aglycon within its isoflavone family (soymilk, substrate concentration 2%, heat treatment of enzyme no, reaction time 1 h): not detected
- Decomposition efficiency: ratio of each glycoside/aglycon within its isoflavone family (soymilk, substrate concentration 2%, heat treatment of enzyme no, reaction time 3 h): not detected
- Decomposition efficiency: ratio of each glycoside/aglycon within its isoflavone family (soymilk, substrate concentration 2%, heat treatment of enzyme no, reaction time 6 h): not detected
- Decomposition efficiency: ratio of each glycoside/aglycon within its isoflavone family (soymilk, substrate concentration 2%, heat treatment of enzyme yes, reaction time 6 h): 51.8%
- Decomposition efficiency: ratio of each glycoside/aglycon within its isoflavone family (soymilk, substrate concentration 5%, heat treatment of enzyme no, reaction time 0 h): 49.4%
- Decomposition efficiency: ratio of each glycoside/aglycon within its isoflavone family (soymilk, substrate concentration 5%, heat treatment of enzyme no, reaction time 1 h): not detected
- Decomposition efficiency: ratio of each glycoside/aglycon within its isoflavone family (soymilk, substrate concentration 5%, heat treatment of enzyme no, reaction time 3 h): not detected
- Decomposition efficiency: ratio of each glycoside/aglycon within its isoflavone family (soymilk, substrate concentration 5%, heat treatment of enzyme no, reaction time 6 h): not detected
- Decomposition efficiency: ratio of each glycoside/aglycon within its isoflavone family (soymilk, substrate concentration 5%, heat treatment of enzyme yes, reaction time 6 h): 56.7%
- Decomposition efficiency: ratio of each glycoside/aglycon within its isoflavone family (soymilk, substrate concentration 10%, heat treatment of enzyme no, reaction time 0 h): 52.5%
- Decomposition efficiency: ratio of each glycoside/aglycon within its isoflavone family (soymilk, substrate concentration 10%, heat treatment of enzyme no, reaction time 1 h): not detected
- Decomposition efficiency: ratio of each glycoside/aglycon within its isoflavone family (soymilk, substrate concentration 10%, heat treatment of enzyme no, reaction time 3 h): not detected
- Decomposition efficiency: ratio of each glycoside/aglycon within its isoflavone family (soymilk, substrate concentration 10%, heat treatment of enzyme no, reaction time 6 h): not detected
- Decomposition efficiency: ratio of each glycoside/aglycon within its isoflavone family (soymilk, substrate concentration 10%, heat treatment of enzyme yes, reaction time 6 h): 56.8%
- Decomposition efficiency: ratio of each glycoside/aglycon within its isoflavone family (soymilk, substrate concentration 20%, heat treatment of enzyme no, reaction time 0 h): 52.4%
- Decomposition efficiency: ratio of each glycoside/aglycon within its isoflavone family (soymilk, substrate concentration 20%, heat treatment of enzyme no, reaction time 1 h): not detected
- Decomposition efficiency: ratio of each glycoside/aglycon within its isoflavone family (soymilk, substrate concentration 20%, heat treatment of enzyme no, reaction time 3 h): not detected
- Decomposition efficiency: ratio of each glycoside/aglycon within its isoflavone family (soymilk, substrate concentration 20%, heat treatment of enzyme no, reaction time 6 h): not detected
- Decomposition efficiency: ratio of each glycoside/aglycon within its isoflavone family (soymilk, substrate concentration 20%, heat treatment of enzyme yes, reaction time 6 h): 55.5%
- Decomposition efficiency: ratio of each glycoside/aglycon within its isoflavone family (soymilk, substrate concentration 30%, heat treatment of enzyme no, reaction time 0 h): 50.9%
- Decomposition efficiency: ratio of each glycoside/aglycon within its isoflavone family (soymilk, substrate concentration 30%, heat treatment of enzyme no, reaction time 1 h): not detected
- Decomposition efficiency: ratio of each glycoside/aglycon within its isoflavone family (soymilk, substrate concentration 30%, heat treatment of enzyme no, reaction time 3 h): not detected
- Decomposition efficiency: ratio of each glycoside/aglycon within its isoflavone family (soymilk, substrate concentration 30%, heat treatment of enzyme no, reaction time 6 h): not detected
- Decomposition efficiency: ratio of each glycoside/aglycon within its isoflavone family (soymilk, substrate concentration 30%, heat treatment of enzyme yes, reaction time 6 h): 55.8%
